We go through four compounds from paper PMC3842914, “Meleagrin, a New FabI Inhibitor from Penicillium chryosogenum with at Least One Additional Mode of Action” (PLoS ONE, 2013).

One assay concerns S. aureus KCTC 1916. The format is cell-based, Staphylococcus aureus. Particulars: exposure 4× MIC. The protocol: (§1) The frequency of spontaneous resistance was determined for S. aureus RN4220, S. aureus KCTC 1916, and E. coli KCTC 1942. […] The organisms were grown to log-phase by dilution of an overnight culture in fresh media and re-incubation at 35°C until the cultures reached a cell density of approximately 10^9 CFU/mL. […] Inocula were determined by applying 100 μl of 10-fold dilutions on solid media without drug. Colony-forming units were counted after 48 h incubation at 35°C. The ratio of the number of colonies on drug-containing plates to that on control plates was calculated as the in vitro frequency of isolation of CFU.

Assay [1] has as its system S. aureus RN4220. Type of assay: cell-based, Staphylococcus aureus. Particulars: exposure 4× MIC. The protocol:
as §1

The subject of the next assay is E. coli EW1b(pBAD-fabI). The assay is described as follows: Overexpression assay, MIC for fabI-overexpressing E. coli EW1b (pBAD-fabI). The settings on record: for MIC for fabI-overexpressing E. coli relative to wild-type and vector-containing E. coli: E. coli EW1b (pBAD-fabI) vs E. coli EW1b and E. coli EW1b (pBAD), in the presence of arabinose; for MIC: Escherichia coli. Type of assay: cell-based. The procedure:
(§2) Whole-cell antimicrobial activity was determined by broth microdilution as described previously. The test strains except for S. pneumoniae were grown to mid-log phase in Mueller–Hinton broth and diluted 1,000-fold in the same medium. Cells (10^5/mL) were inoculated into Mueller–Hinton broth and dispensed at 0.2 mL/well into a 96-well microtiter plate. S. pneumoniae was grown in tryptic soy broth supplemented with 5% sheep blood. MICs were determined in triplicate by serial 2-fold dilutions of test compounds. […] Bacterial growth was determined by measuring the absorption at 650 nm by using a microtiter ELISA reader.
(§3) An overexpression assay using S. aureus RN4220, S. aureus RN4220 (pE194), and S. aureus RN4220 (pE194-fabI) was conducted to perform target validation of FabI inhibitors as described previously. Additionally, both fabI- and fabK-overexpressing E. coli were constructed to test a multitarget effect of the compounds. The wild-type fabI gene from the genomic DNA of E. coli W3110 was amplified by PCR by using the primers 5′-[…]-3′ and 5′-[…]-3′. The wild-type fabK gene from the genomic DNA of S. pneumoniae KCTC 5412 was amplified by PCR by using the primers 5′-[…]-3′ and 5′-[…] […]-3′. The resulting products were cloned into the pBAD-TOPO TA expression vector (Invitrogen, Carlsbad, CA, USA) to yield the pBAD-fabI and pBAD-fabK recombinant plasmids, which placed the expression of the genes fabI and fabK, respectively, under the control of the arabinose promoter. Recombinant pBAD-fabI and pBAD-fabK were then introduced into the pump-negative (tolC) E. coli EW1b via electroporation to generate E. coli EW1b (pBAD-fabI) and E. coli EW1b (pBAD-fabK), respectively.

A further assay relates to E. coli KCTC 1924. Type of assay: cell-based. Particulars: exposure 4× MIC. The protocol: as §1
For another assay, the system named is S. pneumoniae KCTC 3932. The assay is described as follows: Inhibition of macromolecular biosynthesis (radiolabeled precursor incorporation) in S. pneumoniae. Type of assay: cell-based, Streptococcus pneumoniae. Particulars: drugs at 2 times the MIC. The procedure:
(§4) To monitor the effects of compound 1 on lipid, DNA, RNA, protein, and cell wall biosynthesis, its effects on the incorporation of [1-^14C] acetate (50 mCi/mmol), [2-^14C] thymidine (59.8 mCi/mmol), [U-^14C] uridine (539 mCi/mmol), L-[U-^14C] leucine (306 mCi/mmol) or L-[U-^14C] isoleucine (329 mCi/mmol), and N-acetyl-D-[1-^14C] glucosamine (58.1 mCi/mmol) into S. aureus and S. pneumoniae were measured as described previously. S. aureus was exponentially grown to an A650 of 0.2 in Mueller–Hinton broth. S. pneumoniae was grown in tryptic soy broth supplemented with 5% sheep blood. […] An equal volume of DMSO solvent was added to the untreated control. After incubation with the radiolabeled precursors at 37°C for 1 h, followed by centrifugation, the cell pellets were washed twice with PBS buffer. After acetate incorporation, the total cellular lipids were extracted with chloroform-methanol-water. The incorporated radioactivity in the chloroform phase was measured by scintillation counting. For the other precursors, incorporation was terminated by adding 10% (w/v) TCA and cooling on ice for 20 min. The precipitated material was collected on Whatman GF/C glass microfiber filters, washed with TCA and ethanol, dried, and counted using a scintillation counter. The total counts incorporated at 1 h of incubation without inhibitors ranged from >7,000 for [U-^14C] uridine to <13,000 for [1-^14C] acetate. […] In all experiments, known antibacterial agents were included as positive controls.

Another assay concerns E. coli EW1b(pBAD). The assay is described as follows: Overexpression assay, MIC for vector-containing E. coli EW1b (pBAD). The format is cell-based. Particulars: Escherichia coli. The protocol:
as §2, §3

The test system of assay [2] is S. aureus RN4220. Nature of the assay: Inhibition of macromolecular biosynthesis (radiolabeled precursor incorporation) in S. aureus. Type of assay: cell-based, Staphylococcus aureus. Particulars: drugs at 2 times the MIC. The procedure: as §4
The nature of assay [3]: MIC against other gram-positive bacteria. Type of assay: cell-based. Particulars: Staphylococcus aureus. The procedure: as §2
[4] abbreviates: read-out: MIC E. coli EW1b(pBAD-fabI) (+) Ara.
[5] abbreviates: read-out: MIC E. coli EW1b(pBAD-fabI) (−) Ara.
The mark [6] stands for this setting: read-out: MIC E. coli EW1b(pBAD) (+) Ara.
Setting [7] is: read-out: MIC E. coli EW1b(pBAD) (−) Ara.

≈ marks a conversion by molar mass, not a printed value. Where two headings read alike, the source gives them in different places. Some results are limits rather than exact numbers.

The term MIC denotes the lowest concentration found to suppress growth. Regarding `C=CC(C)(C)C12C=C(O)C(=O)N3/C(=C/c4cnc[nH]4)C(=O)NC31N(OC)c1ccccc12` (stereo not drawn) [Compound 1, meleagrin], the Frequency of resistance is <1.03×10^−10 in the assay on S. aureus KCTC 1916, <1.62×10^−10 in the assay with S. aureus RN4220 [1] and <6.7×10^−9 with E. coli KCTC 1924. For the same compound, the “MIC for fabI-overexpressing E. coli relative to wild-type and vector-containing E. coli” value in the assay with E. coli EW1b(pBAD-fabI) was determined as 4 fold. The minimal inhibitory concentration (MIC) in the assay on E. coli EW1b(pBAD-fabI) (setting [4]) is 128 µg/mL (≈ 295 µM); in the assay on E. coli EW1b(pBAD-fabI) (setting [5]) it was 32 µg/mL (≈ 73.8 µM); in the assay on E. coli EW1b(pBAD) (setting [6]), 32 µg/mL (≈ 73.8 µM); with E. coli EW1b(pBAD) (setting [7]), 32 µg/mL (≈ 73.8 µM). Moreover, the “Inhibition of precursor incorporation, L-[U-14C] Isoleucine” value was determined as 9% in the assay on S. pneumoniae KCTC 3932 and 6% in the assay with S. aureus RN4220 [2]. Moreover, the “Inhibition of precursor incorporation, N-Acetyl-D-[1-14C] Glucosamine” value in the assay on S. pneumoniae KCTC 3932 is recorded as 3%; with S. aureus RN4220 [2] it was 25%. Further, the figures for the “Inhibition of precursor incorporation, [1-14C] Acetate” value in the assay on S. pneumoniae KCTC 3932 and in the assay with S. aureus RN4220 [2] were 65% and 62%, respectively. Also, the “Inhibition of precursor incorporation, [2-14C] Thymidine” value in the assay with S. pneumoniae KCTC 3932 was 15%; in the assay on S. aureus RN4220 [2], 13%. Further, the “Inhibition of precursor incorporation, [U-14C] Uridine” value in the assay on S. pneumoniae KCTC 3932 amounted to 2%; in the assay with S. aureus RN4220 [2], 17%.
`C=CC(C)(C)C12C=C(OC)C(=O)N3/C(=C/c4cnc[nH]4)C(=O)N(C)C31N(OC)c1ccccc12` (stereo not drawn) [Compound 5, O,N^14-dimethylmeleagrin]: the Frequency of resistance in the assay on S. aureus KCTC 1916 is <1.03×10^−10; with S. aureus RN4220 [1], <1.62×10^−10; with E. coli KCTC 1924, <6.7×10^−9. For the same compound, the “MIC for fabI-overexpressing E. coli relative to wild-type and vector-containing E. coli” value in the assay with E. coli EW1b(pBAD-fabI) came to 4 fold. Besides, the MIC in the assay on E. coli EW1b(pBAD-fabI) (setting [4]) was 64 µg/mL (≈ 139 µM); in the assay on E. coli EW1b(pBAD-fabI) (setting [5]), 16 µg/mL (≈ 34.7 µM); in assay [3] (other gram-positive bacteria incl. MRSA and QRSA strains, read-out: MIC), 8 to 16 µg/mL (≈ 17.3 to 34.7 µM); in the assay on E. coli EW1b(pBAD) (setting [6]), 16 µg/mL (≈ 34.7 µM); in the assay with E. coli EW1b(pBAD) (setting [7]) it was 16 µg/mL (≈ 34.7 µM).
With `C=CC(C)(C)C12C=C(OC)C(=O)N3/C(=C/c4cnc[nH]4)C(=O)N(C)C31Nc1ccccc12` (stereo not drawn) [Compound 6, O,N^14-dimethylglandicolin], the MIC in assay [3] lay in the range of 8 to 16 µg/mL (≈ 18.5 to 37.1 µM).
In the case of `Oc1cc(Cl)ccc1Oc1ccc(Cl)cc1Cl` [Triclosan, reference compound], the MIC is more than 0.08 µg/mL with E. coli EW1b(pBAD-fabI) (setting [4]), 0.002 µg/mL (≈ 0.00691 µM) with E. coli EW1b(pBAD-fabI) (setting [5]), 0.002 µg/mL (≈ 0.00691 µM) in the assay with E. coli EW1b(pBAD) (setting [6]) and 0.002 µg/mL (≈ 0.00691 µM) in the assay on E. coli EW1b(pBAD) (setting [7]). Also, in the assay with S. aureus RN4220 [2], the “Inhibition of precursor incorporation, [1-14C] Acetate” value was found to be 87%.
